Reference: patent US11401278B2, “Macrocyclic indole derivatives” (The Broad Institute, Inc., priority 2017, dated 2022)
Structures can show the parent of a compound that is named as a salt.

What was measured:
A2780 = test: Antiproliferation assay (Assay 7), A2780; type: cell-based; conditions: CellTiter-Glo, 72 hours, several values per example, listed as 03, read-out: Antiproli A2780 [M] IC50
Description: Assessment of the Anti-Proliferative Effect of Compounds in Different Cell Lines
The impact of compounds on the proliferation of different cell lines was assessed using the CellTiter-Glo® Luminescent Cell Viability reagent from Promega (G7573).
In parallel, cells were plated in a reference (day 0) plate for time zero determination.
Rim wells were excluded. The cells were incubated for 72 hours in a humidified incubator at 37° C. The day 0 plate was measured by adding 30 μL/well of CTG solution (CellTiter-Glo® Luminescent Cell Viability reagent, Promega G7573) to time zero wells in the reference plate followed by a 10 minutes incubation and luminescence reading at 0.1 ms. using the PHERAstar FS microplate reader (BMG Labtech).
After 72 hours incubation, the treated plates were measured in the same way as the day 0 plate mentioned above.

MCL1 protein = MCL1 protein (Homo sapiens (Human), UniProt Q07820); test: PIxEL: protein-protein interaction in permeabilized cells by ELISA (Assay 5); type: cell-based; conditions: permeabilized RKO cells, Biotin-BIM peptide 0.2 μM, serum free; median
Description: PI×EL: Protein-Protein Interaction in Permeabilized Cells by ELISA
Most MCL1 protein molecules are localized at the mitochondria outer membrane and sequester pro-apoptotic proteins through binding of their BCL2 homology domain 3 (BH3 domain). MEB buffer (150 mM mannitol, 10 mM HEPES pH 7.5, 50 mM KCl, 20 μM EDTA, 20 μM EGTA, 5 mM potassium succinate, 0.1% protease-free BSA (SIGMA) with low dose digitonin (0.002%) permeabilizes plasma membrane while leaves live mitochondria, where MCL1 maintains its native localization and conformation. Unlike biophysical assays (e.g. TR-FRET) that use truncated recombinant MCL1 protein, this assay uses full length endogenous MCL1 protein at mitochondria outer membrane. It measures the interaction between MCL1 protein and biotinylated BIM BH3 peptide. Compounds can compete with BIM BH3 peptide to bind to MCL1 protein. This serum free assay measures the affinity between MCL1 protein and compound in permeabilized cells, therefore it is not affected by serum binding and cell permeability, and can measure the intrinsic compound affinity.
On day 1, RKO colon cancer cell line cells were plated at 0.8 million cells/ml, 100 μl/well in 96-well flat bottom TC plates (Corning). MCL1 antibody (Santa Cruz sc-12756) were diluted at 200 fold (final concentration 1 μg/ml) in carbonate buffer (Thermo Fisher Scientific, pH 9.6), and 50 μl of diluted antibody was added to each well of high bind ELISA plates (SARSTEDT). Each plate was tapped to make sure liquid covering entire bottom of wells and incubate at 37° C. overnight.
On the second day, MCL1 antibody was washed from ELISA plate. 250 μl Odyssey® Blocking Buffer (PBS) (Li-Cor) was added to each well, incubated at room temperature for at least 1 hour, then washed once with 250 μl 1×PBST. Plates with RKO cells were gently washed once with 100 μl/well PBS, once with 100 μl/well MEB buffer without digitonin, then 100 μl of MEB buffer with 0.002% digitonin was gently added to each well. Compounds were added with HP Tecan compound dispenser in 3-fold dilution series, highest dose 30 μM, 10-dose per compound in quadruplicates. Biotin-BIM peptide (synthesized by 21st Century) was added with HP Tecan compound dispenser at 0.2 μM immediately after the addition of compounds. Plates were rocked for 1 hour at room temperature. Then MEB buffer was aspirated and 50 μl of CHAPS buffer (50 mM Tris-Cl, pH 7.4, 150 mM NaCl, 1% CHAPS, 1 mM EDTA, 1 mM EGTA, cOmplete protease inhibitors (Roche), PhosSTOP (Roche)) was added to each well. Plates were rocked for 1 hour at 4° C., then 45 μl cell lysate from each well were transferred to ELISA plates coated with MCL1 antibody. Plates were incubated overnight in the cold room with rocking.
On the third day, ELISA plates were washed once with 250 μl 1×PBST. Streptavidin-poly-HRP (Thermo Fisher Scientific) was diluted to 20 ng/ml in Odyssey blocking buffer plus 0.05% Triton-100, and 100 μl was added to each well of the ELISA plate. Plates were incubated at room temperature for 1 hour with rocking, then washed with 100 μL 1×PBST for 3 times. Each SuperSignal ELISA Femto Maximum Sensitivity substrate was added to a 50-ml tube and mixed, then 100 μl of mixed substrate was added to each well. Plates were shaken for 1 minute then luminescence was measured by Envision plate reader […]. Signal of each well were normalized by no-compound control and no-cell control. IC50 was calculated using Graphic Pad PRISM software.

MCL-1 = MCL-1 (Homo sapiens (Human), UniProt Q07820, K194A/K197A/R201A); test: Protein-compound interaction assay (SPR assay, Assay 8); type: binding; conditions: immobilized MBP-MCL-1, 25° C., geometric mean; for koff: read-out: koff; for kon: read-out: kon
From the text: Assay 8 Protein-Compound Interaction Assay (SPR Assay)
The ability of the compounds described in this invention to bind to MCL-1 may be determined using surface plasmon resonance (SPR). This allows for the quantification of binding in terms of the equilibrium dissociation constant (KD [M]), as well as association and dissociation rate constants (kon [1/M 1/s] and koff [1/s], respectively). The measurements may be performed using Biacore® T200 or Biacore® S200 instruments (GE Healthcare).
For SPR measurements, recombinant MCL-1 (amino acids 173-321, N-terminal fused to Maltose Binding Protein (MBP) (SEQ ID 1) purchased from Beryllium (Bedford, Mass., USA)) was immobilized using standard amine coupling (Johnsson B et al, Anal Biochem. 1991 Nov. 1; 198(2):268-77). Briefly, carboxymethylated dextran biosensor chips (Series S Sensor Chip CMS, GE Healthcare) were activated with 1-ethyl-3-(3-dimethylaminopropyl)-carbodiimide hydrochloride (EDC) and N-hydroxysuccinimide (NHS) according to the supplier's instructions. MBP-MCL-1 was diluted in 1×PBS-P+ (GE Healthcare) and injected on the activated chip surface. Subsequently, a solution of 1 M ethanolamine-HCl (GE Healthcare) was injected to block unreacted groups, resulting in approximately 400-2500 response units (RU) of immobilized protein. A reference surface was generated by treatment with NHS-EDC and ethanolamine-HCl. Compounds were dissolved in 100% dimethylsulfoxide (DMSO) to a concentration of 10 mM and subsequently diluted in running buffer (1×PBS-P+ (GE Healthcare) [generated from PBS-P+ Buffer 10× (GE Healthcare): 0.2 M phosphate buffer with 27 mM KCl, 1.37 M NaCl and 0.5% Surfactant P20 (Tween 20).], 1% v/v DMSO). For SPR binding-measurements, serial dilutions of compound (eight dilution steps, typically ranging from 0.2 nM up to 1 μM) were injected over immobilized protein. […] Compounds were injected for 60 s followed by a dissociation time of up to 1000 s.
The double-referenced sensorgrams were fit to a simple reversible Langmuir 1:1 reaction mechanism as implemented in the Biacore® T200 and S200 evaluation software (T200 evaluation software version 2.0 and S200 evaluation software version 1.0, GE Healthcare).

MCL1 protein, sequence (Q07820 whole entry): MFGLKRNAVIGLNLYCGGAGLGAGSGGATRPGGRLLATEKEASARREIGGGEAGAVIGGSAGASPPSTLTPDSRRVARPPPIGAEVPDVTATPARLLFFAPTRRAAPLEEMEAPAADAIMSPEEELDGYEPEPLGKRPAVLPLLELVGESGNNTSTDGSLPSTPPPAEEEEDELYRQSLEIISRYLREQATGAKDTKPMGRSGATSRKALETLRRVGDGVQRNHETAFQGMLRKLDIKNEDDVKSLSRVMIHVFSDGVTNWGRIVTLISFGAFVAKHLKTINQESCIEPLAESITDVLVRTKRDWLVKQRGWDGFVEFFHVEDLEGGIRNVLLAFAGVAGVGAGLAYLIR
MCL-1, sequence (Q07820 whole entry K194A/K197A/R201A, looked up): as the sequence (Q07820 whole entry) above, with K194A, K197A, R201A counted along it

SMILES | IC50 (A2780) | IC50 (MCL1 protein) | Kd (MCL-1) | koff (MCL-1) | kon (MCL-1)
Cc1c2c(nn1C)CN(CCN1CCOCC1)S(=O)(=O)CCCn1c(C(=O)O)c(CCCOc3cccc4ccccc34)c3cccc-2c31 (single isomer, unassigned; enantiomer 2) [Example 3, 2,3-Dimethyl-14-[2-(morpholin-4-yl)ethyl]-7-{3-[(naphthalen-1-yl)oxy]propyl}-13,13-dioxo-10,11,12,13,14,15-hexahydro-2H-13λ^6-pyrazolo[3′,4′:4,5][1,2,8]thiadiazacycloundecino-[6,7,8-hi]indole-8-carboxylic acid-N-ethylethanamine salt (Enantiomer 2)] | 2.11e-05 M |  |  |  | 
CCc1c2c(nn1C)CN(C)S(=O)(=O)CCCn1c(C(=O)O)c(CCCOc3cccc4cc(F)ccc34)c3ccc(F)c-2c31 (single isomer, unassigned; enantiomer 1) [Example 8, (+)-3-Ethyl-4-fluoro-7-{3-[(6-fluoronaphthalen-1-yl)oxy]propyl}-2,14-dimethyl-13,13-dioxo-10,11,12,13,14,15-hexahydro-2H-13λ^6-pyrazolo[3′,4′:4,5][1,2,8]thiadiazacycloundecino-[6,7,8-hi]indole-8-carboxylic acid (Enantiomer 1)] |  | 552 nM | 3.6 nM | 0.008 s⁻¹ | 2.2e+06 M⁻¹ s⁻¹
Cc1c2c(nn1C)CN(C1CC1)S(=O)(=O)CCCn1c(C(=O)O)c(CCCOc3cccc4cc(F)ccc34)c3ccc(Cl)c-2c31 (single isomer, unassigned; enantiomer 1) [Example 42, (−)-4-chloro-14-cyclopropyl-7-{3-[(6-fluoro-1-naphthyl)oxy]propyl}-2,3-dimethyl-11,12,14,15-tetrahydro-2H,10H-pyrazolo[3′,4′:4,5][1,2,8]thiadiazacycloundecino[6,7,8-hi]indole-8-carboxylic acid 13,13-dioxide N-diethylamine salt (Enantiomer 1)] |  | 157 nM | 7.6 nM | 0.016 s⁻¹ | 2.1e+06 M⁻¹ s⁻¹
CCc1c2c(nn1C)CN(C)S(=O)(=O)CCCn1c(C(=O)O)c(CCCOc3cccc4cc(F)ccc34)c3ccc(Cl)c-2c31 (single isomer, unassigned; enantiomer 1) [Example 36, (+)-4-chloro-3-ethyl-7-{3-[(6-fluoronaphthalen-1-yl)oxy]propyl}-2,14-dimethyl-13,13-dioxo-10,11,12,13,14,15-hexahydro-2H-13lambda^6-pyrazolo[3′,4′:4,5][1,2,8]thiadiazacycloundecino-[6,7,8-hi]indole-8-carboxylic acid (Enantiomer 1)] |  | 86.6 nM | 4 nM | 0.004 s⁻¹ | 1e+06 M⁻¹ s⁻¹

Continued, values first:

IC50 (A2780) | IC50 (MCL1 protein) | Kd (MCL-1) | koff (MCL-1) | kon (MCL-1) | SMILES
 | 201 nM | 2.8 nM | 0.016 s⁻¹ | 5.6e+06 M⁻¹ s⁻¹ | Cc1c2c(nn1C)C(CCN1CCOCC1)N(C)S(=O)(=O)CCCn1c(C(=O)O)c(CCCOc3cccc4ccccc34)c3cccc-2c31 (single isomer, unassigned; enantiomer 2) [Example 46, 2,3,14-trimethyl-15-[2-(morpholin-4-yl)ethyl]-7-{3-[(naphthalen-1-yl)oxy]propyl}-13,13-dioxo-10,11,12,13,14,15-hexahydro-2H-13lambda^6-pyrazolo[3′,4′:4,5][1,2,8]thiadiazacycloundecino[6,7,8-hi]indole-8-carboxylic acid N-ethylethanamine Salt (Enantiomer 2)]
 | 506 nM | 5.3 nM | 0.018 s⁻¹ | 3.4e+06 M⁻¹ s⁻¹ | Cc1c2c(nn1C)CN(C)S(=O)(=O)CCCn1c(C(=O)O)c(CCCOc3cccc4cc(F)ccc34)c3ccc(F)c-2c31 (single isomer, unassigned; enantiomer 2) [Example 39, (+)-4-fluoro-7-{3-[(6-fluoronaphthalen-1-yl)oxy]propyl}-2,3,14-trimethyl-13,13-dioxo-10,11,12,13,14,15-hexahydro-2H-13lambda^6-pyrazolo[3′,4′:4,5][1,2,8]thiadiazacycloundecino-[6,7,8-hi]indole-8-carboxylic acid (Enantiomer 2)]
 | 14.2 nM | 1.9 nM | 0.0012 s⁻¹ | 590000 M⁻¹ s⁻¹ | CCc1c2c(nn1C)C(CCC1CCOCC1)N(C)S(=O)(=O)CCCn1c(C(=O)O)c(CCCOc3cccc4cc(F)ccc34)c3ccc(Cl)c-2c31 (single isomer, unassigned; enantiomer 1) [Example 61, (+)-4-chloro-3-ethyl-7-{3-[(6-fluoronaphthalen-1-yl)oxy]propyl}-2,14-dimethyl-15-[2-(oxan-4-yl)ethyl]-13,13-dioxo-10,11,12,13,14,15-hexahydro-2H-13lambda^6-pyrazolo[3′,4′:4,5][1,2,8]thiadiazacycloundecino[6,7,8-hi]indole-8-carboxylic acid (Enantiomer 1)]
 | 74.8 nM |  |  |  | CCc1c2c(nn1C)CN(CC)S(=O)(=O)CCCn1c(C(=O)O)c(CCCOc3cccc4cc(F)ccc34)c3ccc(Cl)c-2c31 (single isomer, unassigned; enantiomer 1) [Example 57, (+)-4-chloro-3,14-diethyl-7-{3-[(6-fluoronaphthalen-1-yl)oxy]propyl}-2-methyl-13,13-dioxo-10,11,12,13,14,15-hexahydro-2H-13lambda^6-pyrazolo[3′,4′:4,5][1,2,8]thiadiazacycloundecino[6,7,8-hi]indole-8-carboxylic acid N-ethylethanamine Salt (Enantiomer 1)]
